Test results published in ChEMBL document CHEMBL4419174, “Small molecule inhibitors of apobec3g and apobec3b” (2015).
The source made the active and inactive calls. The rule behind the calls is not given here.

Tests used:
[1] = molecular target: T1, DNA dC->dU-editing enzyme APOBEC-3A (Homo sapiens, UniProt P31941); assay: (§1) Inhibition of recombinant APOBEC3A (unknown origin) expressed in HEK293 cells assessed as reduction in cytosine deaminase activity using 5'-6-FAM and 3'-TAMRA quench molecule tagged cytosine-containing single-stranded DNA substrate incubated for 2 hrs by fluorescence-based assay; format: cell-based
[2] = Inhibition of recombinant APOBEC3G 2K3A mutant (unknown origin) expressed in HEK293 cells assessed as reduction in cytosine deaminase activity using 5'-6-FAM and 3'-TAMRA quench molecule tagged cytosine-containing single-stranded DNA substrate incubated for 2 hrs by fluorescence-based assay; format: cell-based, Homo sapiens
[3] = molecular target: T2, DNA dC->dU-editing enzyme APOBEC-3G (Homo sapiens, UniProt Q9HC16); assay: (§2) Inhibition of recombinant APOBEC3G (unknown origin) expressed in HEK293 cells assessed as reduction in cytosine deaminase activity using 5'-6-FAM and 3'-TAMRA quench molecule tagged cytosine-containing single-stranded DNA substrate incubated for 2 hrs by fluorescence-based assay; format: cell-based
[4] = molecular target: DNA dC->dU-editing enzyme APOBEC-3B (Homo sapiens, UniProt Q9UH17); assay: Inhibition of recombinant APOBEC3B (unknown origin) expressed in HEK293 cells assessed as reduction in cytosine deaminase activity using 5'-6-FAM and 3'-TAMRA quench molecule tagged cytosine-containing single-stranded DNA substrate incubated for 2 hrs by fluorescence-based assay; format: cell-based
[5] = molecular target: DNA dC->dU-editing enzyme APOBEC-3G (Homo sapiens, UniProt Q9HC16, C321A); assay: Inhibition of recombinant APOBEC3G C321A mutant (unknown origin) expressed in HEK293 cells assessed as reduction in cytosine deaminase activity using 5'-6-FAM and 3'-TAMRA quench molecule tagged cytosine-containing single-stranded DNA substrate incubated for 2 hrs by fluorescence-based assay; format: cell-based
[6] = molecular target: T1, DNA dC->dU-editing enzyme APOBEC-3A; assay: as §1, with “activity at 200 uM” for “activity”, “assay relative to control” for “assay”; format: cell-based
[7] = Stability in DMSO assessed as light dependent drug degradation by HPLC analysis; format: physicochemical
[8] = Stability in DMSO at 10 mM shaken gently at 25 degC exposed toN2 atmosphere assessed as compound degradation measured over 9 hrs by HPLC analysis; format: physicochemical; details: 10000 µM
[9] = Stability in DMSO assessed as drug degradation at -20 to 37 degC by HPLC analysis; format: physicochemical
[10] = Drug metabolism in DMSO at 10 mM shaken gently at 25 degC exposed to visible light (300 W) in oxygen-saturated atmosphere assessed as 2-oxo-1,2-dihydroquinoline-4-carboxylic acid formation after 38 days by HPLC analysis
[11] = Stability in saturated N2 atmosphere assessed as drug degradation by NMR and LC-MS/MS analysis; format: physicochemical
[12] = Drug metabolism in DMSO at 10 mM shaken gently at 25 degC open to atmosphere condition assessed as 2-oxo-1,2-dihydroquinoline-4-carboxylic acid formation after 38 days by HPLC analysis
[13] = Stability in DMSO assessed as drug degradation incubated for 21 days by HPLC analysis; format: physicochemical; details: 504 h
[14] = molecular target: T1, DNA dC->dU-editing enzyme APOBEC-3A; details: HEK293, 200 uM
Description: Inhibition of recombinant APOBEC3A (unknown origin) expressed in HEK293 cells assessed as reduction in cytosine deaminase activity at 200 uM using 5'-6-FAM and 3'-TAMRA quench molecule tagged cytosine-containing single-stranded DNA substrate incubated for 2 hrs and measured on day 0 by fluorescence-based assay

[15] = molecular target: T2, DNA dC->dU-editing enzyme APOBEC-3G; assay: as §2, with “activity at 200 uM” for “activity”, “hrs and measured on day 0” for “hrs”; format: cell-based
[16] = Toxicity in HEK293T cells assessed as cell viability at 50 uM incubated for 5 days relative to control; format: cell-based, HEK-293T; details: human, read-out: Activity
[17] = molecular target: T2, DNA dC->dU-editing enzyme APOBEC-3G; assay: as §2, with “hrs and measured on at days 3, 21, 38, and 72” for “hrs”; format: cell-based
[18] = Toxicity in human HeLa cells assessed as cell viability at 50 uM incubated for 5 days relative to control; format: cell-based; details: read-out: Activity

Chain of DNA dC->dU-editing enzyme APOBEC-3B (Q9UH17 whole entry): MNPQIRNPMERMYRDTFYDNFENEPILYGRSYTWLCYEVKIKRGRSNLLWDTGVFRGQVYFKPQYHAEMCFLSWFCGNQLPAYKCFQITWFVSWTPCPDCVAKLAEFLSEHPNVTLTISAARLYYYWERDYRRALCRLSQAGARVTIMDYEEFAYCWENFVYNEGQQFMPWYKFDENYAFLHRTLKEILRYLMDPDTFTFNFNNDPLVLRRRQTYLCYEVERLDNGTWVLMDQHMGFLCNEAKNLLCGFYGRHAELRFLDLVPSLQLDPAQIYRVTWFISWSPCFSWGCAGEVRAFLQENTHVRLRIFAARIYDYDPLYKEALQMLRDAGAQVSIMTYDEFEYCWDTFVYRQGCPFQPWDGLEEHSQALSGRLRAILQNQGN
T1 sequence (P31941 whole entry): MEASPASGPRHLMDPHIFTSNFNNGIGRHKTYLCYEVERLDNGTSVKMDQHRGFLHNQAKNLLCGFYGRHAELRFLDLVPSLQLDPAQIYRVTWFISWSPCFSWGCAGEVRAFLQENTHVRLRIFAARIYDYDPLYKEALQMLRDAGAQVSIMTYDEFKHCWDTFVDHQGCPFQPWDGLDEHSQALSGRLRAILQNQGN
Chain of DNA dC->dU-editing enzyme APOBEC-3G (Homo sapiens, UniProt Q9HC16, C321A) (Q9HC16 whole entry C321A): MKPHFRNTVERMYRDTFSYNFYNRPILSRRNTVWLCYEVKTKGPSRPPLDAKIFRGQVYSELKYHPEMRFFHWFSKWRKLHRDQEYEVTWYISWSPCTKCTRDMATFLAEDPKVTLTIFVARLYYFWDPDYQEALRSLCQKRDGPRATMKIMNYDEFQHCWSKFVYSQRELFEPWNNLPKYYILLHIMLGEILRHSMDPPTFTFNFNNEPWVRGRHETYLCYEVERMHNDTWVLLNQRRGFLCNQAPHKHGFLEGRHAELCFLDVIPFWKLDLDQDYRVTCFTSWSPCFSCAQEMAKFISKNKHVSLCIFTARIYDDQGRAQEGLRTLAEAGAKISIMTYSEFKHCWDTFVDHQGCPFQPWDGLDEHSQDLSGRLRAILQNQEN
T2 sequence (Q9HC16 whole entry): as the sequence (Q9HC16 whole entry C321A) above, with A321C counted along it

IC50 [1] [µM]	IC50 [2] [µM]	IC50 [3] [µM]	IC50 [4] [µM]	IC50 [5] [µM]	SMILES	further results
> 100	> 100	22	> 100	> 100	O=C(Nc1nnc(-c2ccncc2)s1)c1cc(Cl)nc2ccccc12	–
> 100	> 100	90	> 100	> 100	O=C(Nc1nnc(-c2ccncc2)s1)c1cc(=O)[nH]c2ccccc12	inhibition [6]: 50%
> 100	55	18	31	30	Nc1ccc2[nH]c(=O)cc(C(=O)Nc3nnc(-c4ccncc4)s3)c2c1	–
75	–	32	65	52	O=C(Nc1nnc(-c2ccncc2)s1)c1cc(Br)nc2ccccc12	–
> 100	24	17	37	20	COc1ccc2[nH]c(=O)cc(C(=O)Nc3nnc(-c4ccncc4)s3)c2c1	–
> 100	74	12	31	23	O=C(Nc1nnc(-c2ccncc2)s1)c1cc(=O)[nH]c2ccc([N+](=O)[O-])cc12	–

Second part, the molecule before the results:

SMILES	IC50 [1] [µM]	IC50 [2] [µM]	IC50 [3] [µM]	IC50 [4] [µM]	IC50 [5] [µM]	further results
O=C(O)c1cccc2c1C(=O)N(c1ccccc1)C2	111	–	–	–	–	–
O=C(Nc1nnc(-c2ccncc2)s1)c1ccnc(O)c1	> 100	> 100	60	–	–	–
O=C(Nc1nnc(-c2ccncc2)s1)c1ccc(O)nc1	87	–	21	30	31	–
N#Cc1ncnn1C(=O)c1cc(=O)[nH]c2ccccc12	> 100	> 100	15	> 100	> 100	–
Cc1ccc(-c2cc(C(=O)Nc3nnc(-c4ccncc4)s3)c3ccccc3n2)o1	–	–	–	–	–	Stability [7]: Unstable; Stability [8]: Stable; Stability [9]: Unstable; Drug metabolism [10]: Metabolite detected; Stability [11]: Stable; Drug metabolism [12]: Metabolite detected; Stability [13]: Unstable; inhibition [14]: inactive; inhibition [15]: inactive; viability at 120 h, 50 µM [16]: > 85%; inhibition [17]: inactive; viability at 120 h, 50 µM [18]: > 85%
